In patent US12552771B2, “Carboxylic acid containing azetidinyl compounds for the treatment of neurodegenerative diseases” (Celgene Corporation, priority 2021, dated 2026) one finds EC50 data, which are given here for 28 compounds.

Structures can show the parent of a compound that is named as a salt.

T1 sequence (Q9H228 whole entry): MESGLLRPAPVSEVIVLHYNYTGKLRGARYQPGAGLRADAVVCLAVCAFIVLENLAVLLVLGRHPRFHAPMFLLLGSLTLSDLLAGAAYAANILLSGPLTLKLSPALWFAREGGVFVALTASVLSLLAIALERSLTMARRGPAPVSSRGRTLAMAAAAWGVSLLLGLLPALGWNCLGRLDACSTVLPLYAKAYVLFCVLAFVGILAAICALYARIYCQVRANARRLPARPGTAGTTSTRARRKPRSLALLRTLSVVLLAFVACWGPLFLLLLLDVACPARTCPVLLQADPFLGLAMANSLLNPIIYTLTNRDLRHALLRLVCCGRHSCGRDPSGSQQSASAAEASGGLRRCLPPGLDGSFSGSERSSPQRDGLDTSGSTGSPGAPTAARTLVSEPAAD

The test has as its target T1, S1P5 receptors (Homo sapiens, UniProt Q9H228).
T1 construct: expressed in transfected cells; host or cells: CHO cells (membranes)
As to the kind of experiment: [35S]-GTPγS binding assay with CHO-S1P5 receptor membranes. The format is biochemical. The conditions noted are these: membranes of CHO cells expressing recombinant S1P5 receptors; measure of S1P5 agonism. As to the method:
CHO cells expressing recombinant S1P5 receptors were cultured in 500 cm^2 culture trays and, once confluent, rinsed and detached with cell-lifting buffer (10 mM HEPES, 154 mM NaCl, 6.85 mM EDTA, pH 7.4). Cells were then pelleted by centrifugation, resuspended, and homogenized in membrane preparation buffer (10 mM HEPES and 10 mM EDTA, pH 7.4) using a Polytron PT 1200E homogenizer (Kinematica, Luzern, Switzerland). Cellular proteins were pelleted by centrifugation at 48,000×g at 4° C. for 30 minutes. The resulting supernatant was discarded, and the pellet was re-suspended again in membrane preparation buffer, homogenized for a second time, and then centrifuged again as described above. The final cellular protein pellet was suspended in ice cold resuspension buffer (10 mM HEPES and 0.1 mM EDTA, pH 7.4), divided into aliquots, and stored at −80° C. until use.
Functional binding assays for [^35]-GTPγS were performed in 96-well non-binding surface plates with a final volume of 200 μL. The test compounds were serially diluted in DMSO and added to assay plates using a Tecan D300E digital printer with a total volume of […]. The control sphingosine-1-phosphate (SiP) was prepared separately by preparing a 400 μM stock solution from a 100 nmol pellet of SiP in 10 mM Na2CO3 with 2% […]. The serial dilution of SiP was done using complete assay buffer (20 mM HEPES, 10 mM MgCl2, 100 mM NaCl, 1 mM EDTA, 0.1% fatty acid free bovine serum albumin (BSA), and 30 μg/mL saponin, pH 7.4) and transferred to wells already containing 0.4 μL DMSO. All the wells were then loaded to a total volume of 40 μL of complete assay buffer, except the non-specific binding (NSB) wells. For NSB wells, 40 μL/well of 50 μM GTPγS (Sigma Aldrich, cat #G8634, St. Louis, MO) was added to wells containing 0.4 μL of DMSO. The assay was started by the addition of 120 μL/well of CHO-S1P receptor membrane solution containing 40 μg/mL of membrane protein, 16.67 μM guanosine diphosphate (GDP; Sigma Aldrich, cat #G7127, St. Louis, MO), and 2.5 mg/mL of WGA PVT SPA beads in complete buffer. Assay plates were then sealed and incubated at room temperature with gentle agitation for 30 minutes. Next, 40 μL/well of 1 nM of [^35]-GTPγS (PerkinElmer, cat #NEG030X250UC, Waltham, MA) in basic assay buffer (20 mM HEPES, 10 mM MgCl2, 100 mM NaCl, and 1 mM EDTA, pH7.4) was added to the assay plates to yield a final concentration of 200 pM and the plates were further incubated for 40 minutes at room temperature with gentle agitation. The assay was terminated by centrifugation of the plates at 1000 rpm for 3 minutes using an Eppendorf 5810R centrifuge (Eppendorf, Hamburg, Germany) and G protein bound radioactivity was quantitated using a MicroBeta2 microplate scintillation counter (PerkinElmer, Waltham, MA). As G protein bound radioactivity directly correlates to receptor activation and coupling to the G protein, this assay is a measure of S1P5 agonism.
For orientation: GTPγS resists hydrolysis and so accumulates on activated G proteins.
One may read the EC50 as the midpoint of the concentration-response curve. As for `Cc1cc(C2CN(c3c(C)cccc3F)C2)cc(C)c1CN1CCC(C(=O)O)CC1` [Compound 66, 1-(4-(1-(2-fluoro-6-methylphenyl)azetidin-3-yl)-2,6-dimethylbenzyl)-piperidine-4-carboxylic acid], the EC50 was not above 10 nM.
Next, `Cc1cc(CN2CCC(C(=O)O)CC2)cc(C)c1N1CC(c2c(Cl)cccc2Cl)C1` [Compound 31, 1-(4-(3-(2,6-dichlorophenyl)azetidin-1-yl)-3,5-dimethylbenzyl)piperidine-4-carboxylic acid]: not above 10 nM; `Cc1cc(CN2CCC(C(=O)O)CC2)nc(C)c1C1CN(c2c(Cl)cccc2Cl)C1` [Compound 84, 1-((5-(1-(2,6-dichlorophenyl)azetidin-3-yl)-4,6-dimethyl-pyridin-2-yl)methyl)piperidine-4-carboxylic acid]: 10 to 100 nM.
For the compound `O=C(O)C1CCN(Cc2ccc(C3CN(c4c(Cl)cccc4Cl)C3)cc2F)CC1` [Compound 23, 1-(4-(1-(2,6-dichlorophenyl)azetidin-3-yl)-2-fluorobenzyl)piperidine-4-carboxylic acid], the half-maximal effective concentration (EC50) is not above 10 nM.
Then `CCc1cccc(C)c1N1CC(c2cc(C)c(CN3CCC(C(=O)O)CC3)c(C)c2)C1` [Compound 68, 1-(4-(1-(2-ethyl-6-methylphenyl)azetidin-3-yl)-2,6-dimethylbenzyl)-piperidine-4-carboxylic acid], with not above 10 nM.
Next, `O=C(O)C1CCN(Cc2ccc(N3CC(c4c(Cl)cccc4Cl)C3)cc2F)CC1` [Compound 33, 1-(4-(3-(2,6-dichlorophenyl)azetidin-1-yl)-2-fluorobenzyl)piperidine-4-carboxylic acid]: 10 to 100 nM; `O=C(O)C1CCN(Cc2ccc(C3CN(c4c(Cl)cccc4Cl)C3)cc2C2CC2)CC1` [Compound 56, 1-(2-cyclopropyl-4-(1-(2,6-dichlorophenyl)azetidin-3-yl)benzyl)piperidine-4-carboxylic acid]: not above 10 nM.
On to `Cc1cc(CN2CCC(C(=O)O)CC2)cc(C)c1C1CN(c2c(Cl)cccc2Cl)C1` [Compound 20, 1-(4-(1-(2,6-dichlorophenyl)azetidin-3-yl)-3,5-dimethylbenzyl)piperidine-4-carboxylic acid], for which the EC50 is not above 10 nM.
Next, `Cc1cc(C2CN(c3c(Cl)cccc3Cl)C2)cc(C)c1CN1CCC(C(=O)O)CC1` [Compound 15, 1-(4-(1-(2,6-dichlorophenyl)azetidin-3-yl)-2,6-dimethylbenzyl)piperidine-4-carboxylic acid]: not above 10 nM; `Cc1cc(C2CN(c3ccc(C4CC4)c(Cl)c3)C2)cc(C)c1CN1CCC(C(=O)O)CC1` [Compound 49, 1-(4-(1-(3-chloro-4-cyclopropylphenyl)azetidin-3-yl)-2,6-dimethylbenzyl)-piperidine-4-carboxylic acid]: 100 to 1000 nM.
Next, `CC(C)(c1ccc(C2CN(c3c(Cl)cccc3Cl)C2)nc1)N1CCC(C(=O)O)CC1` [Compound 87, 1-(2-(6-(1-(2,6-dichlorophenyl)azetidin-3-yl)pyridin-3-yl)propan-2-yl)-piperidine-4-carboxylic acid]: 10 to 100 nM.
Next, `Cc1cc(C2CN(c3c(Cl)cccc3Cl)C2)ncc1CN1CCC(C(=O)O)CC1` [Compound 78, 1-((6-(1-(2,6-dichlorophenyl)azetidin-3-yl)-4-methylpyridin-3-yl)methyl)-piperidine-4-carboxylic acid]: 100 to 1000 nM; `Cc1cc(C2CN(c3c(C)cccc3Cl)C2)cc(C)c1CN1CCC(C(=O)O)CC1` [Compound 67, 1-(4-(1-(2-chloro-6-methylphenyl)azetidin-3-yl)-2,6-dimethylbenzyl)-piperidine-4-carboxylic acid]: not above 10 nM; `Cc1cc(C2CN(c3c(Cl)cccc3Cl)C2)ccc1C(C)N1CCC(C(=O)O)CC1` (single isomer, unassigned) [Compound 16b, 1-(1-(4-(1-(2,6-dichlorophenyl)azetidin-3-yl)-2-methylphenyl)-ethyl)piperidine-4-carboxylic acid]: not above 10 nM.
In the case of `Cc1cc(C2CN(c3c(Cl)cccc3Cl)C2)cc(C2CC2)c1CN1CCC(C(=O)O)CC1` [Compound 57, 1-(2-cyclopropyl-4-(1-(2,6-dichlorophenyl)azetidin-3-yl)-6-methylbenzyl)-piperidine-4-carboxylic acid], the 50% effective concentration (EC50) is not above 10 nM.
Next, `O=C(O)C1CCN(Cc2ccc(N3CC(c4c(F)cccc4F)C3)cc2)CC1` [Compound 27, 1-(4-(3-(2,6-difluorophenyl)azetidin-1-yl)benzyl)piperidine-4-carboxylic acid]: 100 to 1000 nM; `O=C(O)C1CCN(C2CCc3cc(C4CN(c5c(Cl)cccc5Cl)C4)ccc32)C1` (stereo not shown) [Compound 7, 1-(5-(1-(2,6-dichlorophenyl)azetidin-3-yl)-2,3-dihydro-1H-inden-1-yl)pyrrolidine-3-carboxylic acid]: not above 10 nM; `O=C(O)C1CCN(Cc2ccc(N3CC(c4c(Cl)cccc4Cl)C3)cn2)CC1` [Compound 29, 1-((5-(3-(2,6-dichlorophenyl)azetidin-1-yl)pyridin-2-yl)methyl)piperidine-4-carboxylic acid]: 10 to 100 nM.
Next, `Cc1cc(C2CN(c3c(F)cccc3F)C2)cc(C)c1CN1CCC(C(=O)O)CC1` [Compound 44, 1-(4-(1-(2,6-difluorophenyl)azetidin-3-yl)-2,6-dimethylbenzyl)piperidine-4-carboxylic acid]: 10 to 100 nM.
Then `O=C(O)C1CCN(Cc2ccc(C3CN(c4c(Cl)cccc4Cl)C3)cn2)CC1` [Compound 18, 1-((5-(1-(2,6-dichlorophenyl)azetidin-3-yl)pyridin-2-yl)methyl)piperidine-4-carboxylic acid], with 100 to 1000 nM.
With `Cc1cc(C2CN(c3c(Cl)cccc3Cl)C2)cc(C#N)c1CN1CCC(C(=O)O)CC1` [Compound 58, 1-(2-cyano-4-(1-(2,6-dichlorophenyl)azetidin-3-yl)-6-methylbenzyl)-piperidine-4-carboxylic acid], the half-maximal effective concentration (EC50) was 10 to 100 nM.
Regarding `O=C(O)C1CCN(Cc2ccc(C3CN(c4ccc(C5CC5)cc4)C3)cc2)CC1` [Compound 43, 1-(4-(1-(4-cyclopropylphenyl)azetidin-3-yl)benzyl)piperidine-4-carboxylic acid], the EC50 lay in the range of 1000 to 10000 nM.
Take `Cc1cc(C2CN(c3c(C)cccc3C3CC3)C2)cc(C)c1CN1CCC(C(=O)O)CC1` [Compound 71, 1-(4-(1-(2-cyclopropyl-6-methylphenyl)azetidin-3-yl)-2,6-dimethylbenzyl)-piperidine-4-carboxylic acid]: the EC50 is not above 10 nM.
Then `Cc1cc(C2CN(c3c(Cl)cccc3Cl)C2)cc(C)c1CN1CC(C(=O)O)C1` [Compound 59, 1-(4-(1-(2,6-dichlorophenyl)azetidin-3-yl)-2,6-dimethylbenzyl)azetidine-3-carboxylic acid], with not above 10 nM; and `O=C(O)C1CCN(Cc2ccc(N3CC(c4c(Cl)cccc4Cl)C3)c(F)c2)CC1` [Compound 34, 1-(4-(3-(2,6-dichlorophenyl)azetidin-1-yl)-3-fluorobenzyl)piperidine-4-carboxylic acid], with not above 10 nM.
Consider `Cc1cc(C2CN(c3c(Cl)cccc3Cl)C2)cc(C)c1CN1CCC(C)(C(=O)O)CC1` [Compound 90, 1-(4-(1-(2,6-dichlorophenyl)azetidin-3-yl)-2,6-dimethylbenzyl)-4-methyl-piperidine-4-carboxylic acid, formic acid salt], for which the concentration giving a half-maximal response (EC50) is not above 10 nM.
Then `O=C(O)C1CCN(Cc2ccc(C3CN(c4ccccc4)C3)cc2)CC1` [Compound 39, 1-(4-(1-phenylazetidin-3-yl)benzyl)piperidine-4-carboxylic acid], with 1000 to 10000 nM; and `O=C(O)C1CCN(Cc2ccc(C3CN(c4ccccc4F)C3)cc2)CC1` [Compound 40, 1-(4-(1-(2-fluorophenyl)azetidin-3-yl)benzyl)piperidine-4-carboxylic acid], with 100 to 1000 nM.
